Measurements from patent US10323001B2, “Compositions for modulating a kinase cascade and methods of use thereof” (Athenex, Inc., priority 2006, dated 2019).
Read-outs that look alike come from different tables or passages of the source.

Experiments:
[1] = Threshold solubility of salt screen 96 well plate; conditions: DI water
Description: Following each addition, the plate was shaken to encourage mixing for at least 5 minutes prior to evaluation.

[2] = Solubility in DI water and pH 2.0 phosphate buffer; assay type: physicochemical; conditions: for solubility: thermodynamic from solid
Description: The table below summarizes additional characterization data for the fumaric and maleate KX2-391.MSA salts and compares it to free base, bis-HCl, and MSA salts described above. The results in the table below were obtained using the procedures described above in Examples 5 (XRPD), 6 (DSC), 7 (TGA), and 8 (moisture-sorption).
Solubility experiments were also performed using pH 2.0 phosphate buffer and DI water pH 6.9 and KX2-391.MSA, Form A. Each vial was filled with approximately 50 mg of KX2-391.MSA, Form A and 100 μL aliquots of the corresponding solvent was added until complete dissolution was observed, followed by stirring at room temperature for one and five days. The solids obtained were isolated by filtration, dried under vacuum at room temperature and analyzed by HPLC. The initial HPLC purity of KX2-391.MSA, Form A was 99.4 (% area). The solubility by HPLC of KX2-391.MSA, Form A in phosphate buffer/RT was >500 mg/mL and HPLC purity was measured to be 99.4. The solubility by HPLC of KX2-391.MSA, Form A in DI H2O/RT was >500 mg/mL and HPLC purity was measured to be 99.4.

[3] = 5 mg/mL DI water dissolution experiment; assay type: physicochemical; set-up: key to dissolution state: P—Particulates partially dissolved; D—Particulates fully dissolved
Description: Dissolution experiments were performed on KX2-391 salts to provide a better understanding of the salts interaction in water. This was accomplished using a 5 mg/mL DI water dissolution experiment where 5 mg of each salt was weighed into a vial and 1 mL of DI wather was added. The solution was monitored visually with magnetic stirring over a 20 minute time period to observe the time of dissolution.

[4] = Moisture-sorption analysis (Hiden IGAsorp); assay type: physicochemical; conditions: 25° C.
Description: Moisture-sorption experiments were performed using a Hiden IGAsorp Moisture Sorption instrument on KX2-391.MSA obtained in accordance with the process of the present invention (Example 4). First, the sample was dried at 0% Relative Humidity (RH) and 25° C. until an equilibrium weight was reached or for a maximum of four hours. The sample was then subjected to an isothermal (25° C.) adsorption scan from 10 to 90% RH in steps of 10%. The sample was allowed to equilibrate to an asymptotic weight at each point for a maximum of four hours. Following adsorption, a desorption scan from 85 to 0% RH (at 25° C.) was run in steps of −10% again allowing a maximum of four hours for equilibration to an asymptotic weight. The sample was then dried for one hour at 80° C. and the resulting solid analyzed by XRPD. […] FIG. 10 depicts percent change of water content as a function of relative humidity for KX2-391.MSA, Form A.
Moisture-sorption experiments were performed using a Hiden IGAsorp Moisture Sorption Instrument on KX2-391.2HCl obtained in accordance with the process of the present invention (Example 3). First, the sample was dried at 0% Relative Humidity (RH) and 25° C. until an equilibrium weight was reached or for a maximum of four hours. The sample was then subjected to an isothermal (25° C.) adsorption scan from 10 to 90% RH in steps of 10%. The sample was allowed to equilibrate to an asymptotic weight at each point for a maximum of four hours. Following adsorption, a desorption scan from 85 to 0% RH (at 25° C.) was run in steps of −10% again allowing a maximum of four hours for equilibration to an asymptotic weight. The sample was then dried for one hour at 80° C. and the resulting solid analyzed by XRPD.

[5] = Humidity chamber hygroscopicity study (salt solution chambers, visual inspection); assay type: physicochemical; conditions: ambient temperature
[6] = as above; assay type: physicochemical; conditions: ambient temperature
Description: Further characterization of the hygroscopicity of the mesylate salt was performed using several humidity chambers to cover a range of humidity from 75, 88 to 95% RH. The 75, 88, and 95% RH chambers were prepared with NaCl, BaCl2.2H2O, and Na2HPO4.12 H2O respectively and were equilibrated for 48 hours prior to introducing the samples. Samples were placed into aluminum pans and monitored by visual inspection for up to five days. Table 3 summarizes the observations at 0, 3, 5, 24, 48, 72, 96 and 120 hour time points.
Moisture sorption studies conducted at ambient temperature utilizing salt solution humidity chambers were conducted to evaluate solid stability by visual inspection.

[7] = % RH 90.0102, end of adsorption
[8] = % RH 90.0102, start of desorption
[9] = % RH −0.0430, end of desorption
[10] = % RH −0.0500, start of adsorption scan

O=C(Cc1ccc(-c2ccc(OCCN3CCOCC3)cc2)cn1)NCc1ccccc1.O=C(O)C=CC(=O)O [Fumaric]
Threshold solubility rank ([1]; salt screen well: 1 Equivalent of Acid, ACN): 5
Threshold solubility rank ([1]; salt screen well: 1 Equivalent of Acid, Acetone): 5
Threshold solubility rank ([1]; salt screen well: 1 Equivalent of Acid, Dioxane): 4
Threshold solubility rank ([1]; salt screen well: 1 Equivalent of Acid, EtOH): 2
Threshold solubility rank ([1]; salt screen well: 1 Equivalent of Acid, IPA): 2
Threshold solubility rank ([1]; salt screen well: 1 Equivalent of Acid, THF): 5
Threshold solubility rank ([1]; salt screen well: 2 Equivalents of Acid, ACN): 5
Threshold solubility rank ([1]; salt screen well: 2 Equivalents of Acid, Acetone): 5
Threshold solubility rank ([1]; salt screen well: 2 Equivalents of Acid, Dioxane): 2
Threshold solubility rank ([1]; salt screen well: 2 Equivalents of Acid, IPA): 2
Threshold solubility rank ([1]; salt screen well: 2 Equivalents of Acid, THF): 5
Solubility mg/mL [2]: DI H20: 7.6 mg/mL
pH of solubility sample [2]: (4.5*)
Solubility mg/mL ([2]; pH 2): pH 2: 21.5 mg/mL
pH of solubility sample ([2]; pH 2): (4.5*)
dissolution in 5 mg/mL DI water experiment ([3]; 5 mg in 1 mL DI water, magnetic stirring): not observed to dissolve solids within 10 minutes
dissolution state ([3]; about 5 mg in 1 mL DI water, magnetic stirring, 0 s): P
dissolution state ([3]; about 5 mg in 1 mL DI water, magnetic stirring, 30 s): P
dissolution state ([3]; about 5 mg in 1 mL DI water, magnetic stirring, 1 min): P
dissolution state ([3]; about 5 mg in 1 mL DI water, magnetic stirring, 2 min): P
dissolution state ([3]; about 5 mg in 1 mL DI water, magnetic stirring, 5 min): P
dissolution state ([3]; about 5 mg in 1 mL DI water, magnetic stirring, 10 min (1 mL DI water added)): P
dissolution state ([3]; about 5 mg, after additional 1 mL DI water, 15 min): P
dissolution state ([3]; about 5 mg, after additional 1 mL DI water, 20 min): D
Moisture Sorption Wt % Water @ 90% RH [4]: 0.5 wt %

Cl.Cl.O=C(Cc1ccc(-c2ccc(OCCN3CCOCC3)cc2)cn1)NCc1ccccc1 [KX2-391.2HCl, 2-(5-(4-(2-morpholinoethoxy)phenyl)pyridine-2-yl)-N-benzylacetamide dihydrochloride]
Results (visual inspection) ([5]; 32% RH, 7 days, dihydrochloride): remain stable
Results (visual inspection) ([5]; 32% RH, 7 days, listed as KX2-391•2HCl, dihydrochloride): Solid
Results (visual inspection) ([5]; 42% RH, dihydrochloride): Deliquescence
Results (visual inspection) ([5]; 51% RH): Deliquescence
pH of solubility sample [2]: 2.1
pH of solubility sample ([2]; pH 2): (1.9)
solubility ([2]; pH 2, aqueous buffer): > 500 mg/mL
solubility ([2]; pH 6.9, water): > 500 mg/mL
Time to deliquescence ([6]; 42% RH): <3 h
Results (visual inspection) ([6]; 42% RH, dihydrochloride): deliquescence was observed within three hours
Time to deliquescence ([6]; 51% RH, dihydrochloride): ≤ 12 h
Time to deliquescence ([6]; 51% RH, listed as KX2-391•2HCl, dihydrochloride): <12 h
Results (visual inspection) ([6]; 95% RH): Deliquescence
Time to deliquescence ([6]; 95% RH, dihydrochloride): ≤ 12 h
Time to deliquescence ([6]; 95% RH, listed as KX2-391•2HCl, dihydrochloride): <12 h
deliquescence humidity at ambient temperature [6]: 32-42 % RH
inflection point of moisture sorption (suggesting deliquescence) [4]: 40-50 % RH
hygroscopicity by moisture sorption analysis ([4]; adsorption scan 10 to 90% RH): significantly hygroscopic
water absorbed at 60% RH ([4]; 60% RH): 16.7 wt %
Moisture Sorption Wt % Water @ 90% RH [4]: 27.0 wt %
Mole ration (water:sample) ([4]; % RH 4.9957, desorption): 1.3860
Wt % water ([4]; % RH 4.9957, desorption): 4.7176 Wt %
Mole ration (water:sample) ([4]; % RH 10.0011, adsorption): 2.0998
Wt % water ([4]; % RH 10.0011, adsorption): 6.9776 Wt %
Mole ration (water:sample) ([4]; % RH 15.0035, desorption): 2.0512
Wt % water ([4]; % RH 15.0035, desorption): 6.8271 Wt %
Mole ration (water:sample) ([4]; % RH 20.0071, adsorption): 2.4810
Wt % water ([4]; % RH 20.0071, adsorption): 8.1412 Wt %
Mole ration (water:sample) ([4]; % RH 25.0029, desorption): 4.0655
Wt % water ([4]; % RH 25.0029, desorption): 12.6812 Wt %
Mole ration (water:sample) ([4]; % RH 29.9953, adsorption): 2.7855
Wt % water ([4]; % RH 29.9953, adsorption): 9.0498 Wt %
Mole ration (water:sample) ([4]; % RH 35.0089, desorption): 4.3683
Wt % water ([4]; % RH 35.0089, desorption): 13.4981 Wt %
Mole ration (water:sample) ([4]; % RH 39.9936, adsorption): 3.1317
Wt % water ([4]; % RH 39.9936, adsorption): 10.0615 Wt %
Mole ration (water:sample) ([4]; % RH 45.0063, desorption): 4.6309
Wt % water ([4]; % RH 45.0063, desorption): 14.1945 Wt %
Mole ration (water:sample) ([4]; % RH 50.0083, adsorption): 4.7853
Wt % water ([4]; % RH 50.0083, adsorption): 14.5986 Wt %
Mole ration (water:sample) ([4]; % RH 54.9876, desorption): 4.8578
Wt % water ([4]; % RH 54.9876, desorption): 14.7870 Wt %
Mole ration (water:sample) ([4]; % RH 59.9940, adsorption): 5.6228
Wt % water ([4]; % RH 59.9940, adsorption): 16.7261 Wt %
Mole ration (water:sample) ([4]; % RH 64.9989, desorption): 5.0957
Wt % water ([4]; % RH 64.9989, desorption): 15.3997 Wt %
Mole ration (water:sample) ([4]; % RH 70.0044, adsorption): 6.6487
Wt % water ([4]; % RH 70.0044, adsorption): 19.1922 Wt %
Mole ration (water:sample) ([4]; % RH 75.0016, desorption): 5.5767
Wt % water ([4]; % RH 75.0016, desorption): 16.6119 Wt %
Mole ration (water:sample) ([4]; % RH 80.0002, adsorption): 7.4350
Wt % water ([4]; % RH 80.0002, adsorption): 20.9856 Wt %
Mole ration (water:sample) ([4]; % RH 84.9979, desorption): 8.3910
Wt % water ([4]; % RH 84.9979, desorption): 23.0617 Wt %
Mole ration (water:sample) [4, 7]: 10.3345
Wt % water [4, 7]: 26.9630 Wt %
Mole ration (water:sample) [4, 8]: 10.3345
Wt % water [4, 8]: 26.9630 Wt %
Mole ration (water:sample) [4, 9]: 0.3038
Wt % water [4, 9]: 1.0737 Wt %
Mole ration (water:sample) [4, 10]: 1.7493
Wt % water [4, 10]: 5.8814 Wt %
